Experiment [1] relates to MDA-MB-231 breast cancer cell line. Nature of the experiment: SRB anti-proliferative assay, MDA-MB-231. In kind it is cell-based, human. Conditions: for IC50 / IC50 MDA-MB-231: mean ± S.D. from 3 separate experiments. As for the experimental part:
(§1) Cytotoxicity was assessed following the SRB colorimetric assay protocol, as reported earlier.
(§2) 1. Anti-proliferative action toward human breast cell lines […]
(§3) have been obtained from American Type Culture Collection (ATCC). The cells were maintained in Dulbecco's modified Eagle's medium (DMEM) supplemented with 10% heat inactivated fetal calf serum (GIBCO), penicillin (100 U/ml) and streptomycin (100 µg/ml) at 37 °C in humidified atmosphere containing 5% CO2. Cells at a concentration of […]
(§4) The anti-proliferative activity of the tested hybrids 6a-i, 9a-f and 11a, b was measured in vitro using the Sulfo-Rhodamine-B stain (SRB) assay. Briefly, Cells were inoculated in 96-well microtiter plate (5X104 cells/ well) for 24 h before treatment with the tested compounds to allow attachment of cell to the wall of the plate. Tested compounds were dissolved in DMSO at 1 mg/ml immediately before use and diluted to the appropriate volume just before addition to the cell culture. Different concentrations of tested compounds, doxorubicin and sorafenib were added to the cells (three wells were prepared for each individual dose). Cells were incubated with the compounds for 48 h at 37°C and in atmosphere of 5% CO2. After 48 h cells were fixed, washed, and stained for 30 min with 0.4% (w/v) SRB dissolved in 1% acetic acid. Unbound dye was removed by four washes with 1% acetic acid, and attached stain was recovered with Tris-EDTA buffer.
(§5) Color intensity was measured in an ELISA reader. […]

A further experiment has as its target T1, CDK4 (Homo sapiens, UniProt P11802).
T1 construct: purchased Reaction Biology Corp. (Kinase HotSpot service)
Nature of the experiment: CDK4 kinase inhibition (Reaction Biology HotSpot). Conditions: for inhibition at 20 µM: single dose of 20 µM. In kind it is biochemical. An excerpt:
(§6) 5. CDK Kinase Inhibitory Activity
(§7) along with required cofactors.
(§8) Kinase activity data were
(§9) (dimethyl sulfoxide) reactions.

The target of another experiment is T2, CDK2 (Homo sapiens, UniProt P24941).
T2 construct: purchased Reaction Biology Corp. (Kinase HotSpot service)
The experiment can be described thus: CDK2 kinase inhibition (Reaction Biology HotSpot). The class given is biochemical. The following applies: single dose of 20 µM; read-out: % Enzyme Inhibitory Activity CDK2.
Text: as §6, §7, §8, §9

The target of the next experiment is CDK9 (Homo sapiens, UniProt P50750). The experiment can be described thus: CDK9 kinase inhibition (Reaction Biology HotSpot). The following applies: read-out: % Enzyme Inhibitory Activity CDK9.
The test system of experiment [2] is MCF-7 breast cancer cell line. Nature of the experiment: SRB anti-proliferative assay, MCF-7. The class given is cell-based, human. The following applies: for IC50: Homo sapiens, read-out: IC50 MCF-7. As for the experimental part:
as §1, §2, §3, §4, §5

Where [3] appears, read: Homo sapiens, MDA-MB-231, SRB assay, 48 h, read-out: IC50 MDA-MB-231.
The mark [4] stands for this setting: MCF7, SRB assay, 48 h, mean ± S.D. from 3 separate experiments.
Setting [5] is: Homo sapiens, MDA-MB-231, 48 h, read-out: IC50 MDA-MB-231, SRB assay, 48 h.
[6] abbreviates: SRB assay, 48 h, mean ± S.D. from 3 separate experiments.

“Also recorded” adds a separate entry of the source. Where two headings read alike, the source gives them in different places. A value given as a limit tells only on which side of the number the result lay.

Chain of CDK9 (P50750 whole entry): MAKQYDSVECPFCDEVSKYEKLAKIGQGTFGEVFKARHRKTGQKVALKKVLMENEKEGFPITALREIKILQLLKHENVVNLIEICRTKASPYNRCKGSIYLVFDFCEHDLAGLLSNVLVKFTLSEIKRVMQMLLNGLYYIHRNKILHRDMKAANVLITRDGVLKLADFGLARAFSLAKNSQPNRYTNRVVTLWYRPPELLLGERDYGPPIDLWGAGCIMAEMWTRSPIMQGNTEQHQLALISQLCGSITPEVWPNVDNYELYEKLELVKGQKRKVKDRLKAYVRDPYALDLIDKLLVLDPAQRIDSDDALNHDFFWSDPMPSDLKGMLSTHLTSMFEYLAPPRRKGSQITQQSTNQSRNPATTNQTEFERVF
Chain of CDK9 (O60563 whole entry partner): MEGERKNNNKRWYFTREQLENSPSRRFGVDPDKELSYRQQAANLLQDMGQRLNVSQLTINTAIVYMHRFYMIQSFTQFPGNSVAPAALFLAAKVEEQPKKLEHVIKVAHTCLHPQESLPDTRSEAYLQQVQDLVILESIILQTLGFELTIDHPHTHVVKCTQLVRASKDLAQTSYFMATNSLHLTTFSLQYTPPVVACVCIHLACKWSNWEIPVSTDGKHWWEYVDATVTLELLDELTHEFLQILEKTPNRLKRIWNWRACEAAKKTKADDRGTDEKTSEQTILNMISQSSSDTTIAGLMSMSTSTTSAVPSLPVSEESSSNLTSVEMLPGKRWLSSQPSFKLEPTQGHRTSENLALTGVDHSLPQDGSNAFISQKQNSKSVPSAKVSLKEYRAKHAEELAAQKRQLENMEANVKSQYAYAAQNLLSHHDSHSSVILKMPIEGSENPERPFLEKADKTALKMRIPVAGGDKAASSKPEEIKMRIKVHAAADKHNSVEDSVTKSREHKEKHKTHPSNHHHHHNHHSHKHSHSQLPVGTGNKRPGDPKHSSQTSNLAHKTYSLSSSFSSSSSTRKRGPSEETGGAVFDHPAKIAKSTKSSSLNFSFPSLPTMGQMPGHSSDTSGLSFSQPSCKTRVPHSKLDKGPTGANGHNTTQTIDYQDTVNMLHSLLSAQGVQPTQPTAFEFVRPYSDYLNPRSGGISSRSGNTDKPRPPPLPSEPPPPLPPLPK
T1 sequence (P11802 whole entry): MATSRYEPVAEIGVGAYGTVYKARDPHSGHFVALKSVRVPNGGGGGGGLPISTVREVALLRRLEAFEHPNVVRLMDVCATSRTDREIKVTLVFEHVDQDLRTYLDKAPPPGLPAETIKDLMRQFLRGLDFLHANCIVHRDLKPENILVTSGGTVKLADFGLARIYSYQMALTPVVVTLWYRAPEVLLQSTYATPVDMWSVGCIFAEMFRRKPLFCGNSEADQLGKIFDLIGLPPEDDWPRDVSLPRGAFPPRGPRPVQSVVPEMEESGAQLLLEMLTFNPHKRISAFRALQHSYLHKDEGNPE
T1 sequence (P24385 whole entry partner): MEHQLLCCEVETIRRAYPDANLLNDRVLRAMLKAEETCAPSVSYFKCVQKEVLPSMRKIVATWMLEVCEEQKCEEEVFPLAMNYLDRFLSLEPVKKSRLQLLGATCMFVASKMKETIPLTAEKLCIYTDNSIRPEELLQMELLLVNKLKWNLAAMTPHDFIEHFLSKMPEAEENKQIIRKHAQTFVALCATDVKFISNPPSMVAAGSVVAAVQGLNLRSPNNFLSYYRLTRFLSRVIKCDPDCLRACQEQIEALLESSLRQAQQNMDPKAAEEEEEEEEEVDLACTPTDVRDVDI
Experimental for CDK9: The in vitro CDK kinase inhibition assay was performed by Reaction Biology Corp. (PA, USA) (http://www.reactionbiology.com) Kinase HotSpotSM service.
Reaction Biology Corp. Kinase HotSpotSM service (http://www.reactionbiology.com)
was used for screening of tested compounds. CDK Kinase inhibitory activities were
assessed by the HotSpot assay platform, which contained specific kinase/substrate pairs
along with required cofactors. Base reaction buffer: 20 mM Hepes (pH 7.5), 10 mM MgCl2,
Testing compounds were dissolved in 100% DMSO to specific concentration. The serial
dilution was conducted by Integra Viaflo Assist in DMSO. The reaction mixture containing the examined compound and 33P-ATP was incubated at room temperature for
2 h and radioactivity was detected by filter-binding method. Kinase activity data were
expressed as the percent remaining kinase activity in test samples compared to vehicle

By IC50 is commonly meant the point on the concentration scale where inhibition reaches its midpoint. With `O=C1Nc2ccccc2/C1=N/NC(=O)c1cc2ccccc2[nH]1` [6a], the IC50 in experiment [1] (setting [3]) came to 15.1 ± 0.73 µM; against CDK4 it was 1.82 µM; in experiment [2] (setting [4]), 3.12 ± 0.14 µM. For the same compound, the inhibition at 20 µM worked out at 92% against CDK4, 78% on CDK2 and 20% on CDK9.

For the compound `O=C1Nc2ccc(F)cc2/C1=N/NC(=O)c1cc2ccccc2[nH]1` [6b], the values for the IC50 in experiment [1] (setting [3]) and in experiment [2] (setting [4]) were 6.36 ± 0.29 µM and 6 ± 0.32 µM, respectively. For the same compound, the inhibition at 20 µM is 33% against CDK4, 48% on CDK2 and 7% on CDK9.

Turning to `O=C1Nc2ccc(Cl)cc2/C1=N/NC(=O)c1cc2ccccc2[nH]1` [6c], the half-inhibitory concentration (IC50) in experiment [1] (setting [3]) stood at 9.48 ± 0.44 µM; in experiment [2] (setting [4]), 2.72 ± 0.17 µM. Besides, the inhibition at 20 µM against CDK4 is 28%; on CDK2, not below 50%; at CDK9 it was 11%.

Turning to `O=C1Nc2ccc(Br)cc2/C1=N/NC(=O)c1cc2ccccc2[nH]1` [6d], the results for the concentration for half-maximal inhibition (IC50) in experiment [1] (setting [3]) and in experiment [2] (setting [4]) were 18.3 ± 0.71 µM and 3.31 ± 0.11 µM, respectively. Besides, the inhibition at 20 µM against CDK4 stood at 43%; at CDK2, 85%; at CDK9, 32%.

As to `O=C1Nc2ccc(OC(F)(F)F)cc2/C1=N/NC(=O)c1cc2ccccc2[nH]1` [6g], the half-inhibitory concentration (IC50) came to 7.19 ± 0.38 µM in experiment [1] (setting [3]) and 5.07 ± 0.21 µM in experiment [2] (setting [4]). In addition, the values for the inhibition at 20 µM against CDK4, on CDK2 and on CDK9 were 19%, 14% and 4%, respectively.

For `O=C1Nc2ccc([N+](=O)[O-])cc2/C1=N/NC(=O)c1cc2ccccc2[nH]1` [6h], the concentration for half-maximal inhibition (IC50) in experiment [1] (setting [3]) came out at 1.85 ± 0.07 µM; in experiment [2] (setting [4]), 21.4 ± 1.58 µM. For the same compound, the “fold potency compared to staurosporine” value in experiment [1] (MDA-MB-231, ratio of IC50 values) is 5.56 fold. The inhibition at 20 µM on CDK4 was 46%; on CDK2, not below 50%; at CDK9, 10%.

For the compound `Cc1cc(C)c2c(c1)/C(=N/NC(=O)c1cc3ccccc3[nH]1)C(=O)N2` [6i], the IC50 in experiment [1] (setting [3]) was more than 100 µM; in experiment [2] (setting [4]), 47.2 ± 3.02 µM. Besides, the “IC50 MDA-MB-231” value in experiment [1] (SRB assay, 48 h) was “no activity”.

As for `CN1C(=O)/C(=N\NC(=O)c2cc3ccccc3[nH]2)c2ccccc21` [9a], the IC50 in experiment [1] (setting [3]) worked out at 8.39 ± 0.27 µM; in experiment [2] (setting [4]), 5.5 ± 0.28 µM. Also, the inhibition at 20 µM against CDK4 came to 20%; on CDK2 it was 41%; at CDK9 it was 13%.

As for `CCCN1C(=O)/C(=N\NC(=O)c2cc3ccccc3[nH]2)c2ccccc21` [9b], the half-maximal inhibitory concentration (IC50) in experiment [1] (setting [5]) stood at 18.2 ± 0.85 µM; in experiment [1] (read-out: IC50 MDA-MB-231, SRB assay, 48 h), 18.5 ± 0.85 µM; in experiment [2] (MCF7, 48 h) it was 40.9 ± 3.17 µM.

`CCOC(=O)CN1C(=O)/C(=N\NC(=O)c2cc3ccccc3[nH]2)c2ccccc21` [9c]: the IC50 was more than 100 µM in experiment [1] (setting [3]) and 67.5 ± 3.02 µM in experiment [2] (setting [4]). For the same compound, the “IC50 MDA-MB-231” value in experiment [1] (SRB assay, 48 h) was “no anti-proliferative activity”.

In the case of `O=C(N/N=C1\C(=O)N(Cc2ccccc2)c2ccccc21)c1cc2ccccc2[nH]1` [9d], the 50% inhibitory concentration (IC50) in experiment [1] (setting [5]) came to 6.5 ± 0.39 µM; in experiment [2] (MCF7, 48 h) it was 9.56 ± 0.61 µM.

As to `O=C(N/N=C1\C(=O)N(Cc2ccc(F)cc2)c2ccccc21)c1cc2ccccc2[nH]1` [9e], the IC50 in experiment [1] (setting [5]) is 1.03 ± 0.04 µM; in experiment [2] (MCF7, 48 h) it was 3.7 ± 0.19 µM. The inhibition at 20 µM on CDK4 is 12%; at CDK2, 5%; at CDK9, 9%.

Consider `CCCN1C(=O)/C(=N\NC(=O)c2cc3ccccc3[nH]2)c2cc(Cl)ccc21` [9f], for which the IC50 in experiment [1] (setting [5]) was 9.44 ± 0.35 µM; in experiment [2] (MCF7, 48 h), 19.3 ± 0.65 µM.

Take `O=C(NN=C1Cc2ccccc2C1)c1cc2ccccc2[nH]1` [11a]: the half-inhibitory concentration (IC50) in experiment [1] (setting [3]) is more than 100 µM; in experiment [2] (setting [4]) it was 84.7 ± 4.02 µM. In addition, the “IC50 MDA-MB-231” value in experiment [1] (SRB assay, 48 h) is “no activity; also recorded: did not exert any significant anti-proliferative action”. For the same compound, the “IC50 MCF-7” value in experiment [2] (setting [6]) is listed as “did not exert any significant anti-proliferative action”.

On to `O=C(N/N=C1\CCCc2ccccc21)c1cc2ccccc2[nH]1` [11b], for which the half-inhibitory concentration (IC50) in experiment [1] (setting [3]) and in experiment [2] (setting [4]) was more than 100 µM each time. For the same compound, in experiment [1] (SRB assay, 48 h), the “IC50 MDA-MB-231” value was “no activity; also recorded: did not exert any significant anti-proliferative action”. The “IC50 MCF-7” value in experiment [2] (setting [6]) was “did not exert any significant anti-proliferative action”.

For `CN[C@@H]1C[C@H]2O[C@@](C)([C@@H]1OC)n1c3ccccc3c3c4c(c5c6ccccc6n2c5c31)C(=O)NC4` [Staurosporine, reference compound], the inhibition at 20 µM at CDK9 was 98%.

For the origin of these results see PMC7248897, “Synthesis, Biological Evaluation and In Silico Studies of Certain Oxindole–Indole Conjugates as Anticancer CDK Inhibitors” (Molecules, 2020).
